These results are taken from patent publication US20220281846A1, “COMPOUNDS AND COMPOSITIONS FOR THE TREATMENT OF RESPIRATORY DISEASES” (THE UNIVERSITY OF MELBOURNE, priority 2018, published 2022).

In one experiment the target is T1, MINK/MINK1 (Homo sapiens, UniProt Q8N4C8).
T1 construct: purchased Reaction Biology Corp
In words: Kinase inhibition assay (HotSpot), MINK/MINK1. It is filed as biochemical. Particulars: 10 μM ATP, 10-dose IC50 mode; read-out: Compound IC50 (M) MINK/MINK1.

The target in experiment [1] is T2, human recombinant Casein kinase 18 (CK1δ) (Homo sapiens, UniProt P48730).
T2 construct: purchased Reaction Biology Corp
As to the kind of experiment: Kinase inhibition assay (HotSpot, Reaction Biology Corp), CK1δ. Particulars: 10 μM ATP, 10-dose IC50 mode; read-out: Compound IC50 (M) CK1δ. It is filed as biochemical.

The next experiment addresses T3, ERBB4/HER4 (Homo sapiens, UniProt Q15303).
T3 construct: purchased Reaction Biology Corp
As to the kind of experiment: Kinase inhibition assay (HotSpot), ERBB4/HER4. It is filed as biochemical. Particulars: 10 μM ATP, 10-dose IC50 mode; read-out: Compound IC50 (M) ERBB4/HER4.

For experiment [2], the system named is TGF-β-induced IL-11 in primary human parenchymal fibroblast cells (pFbs). In words: Human parenchymal fibroblast cell assay, TGF-β-induced IL-11 (ELISA). It is filed as cell-based. Conditions: compounds 0.1-10 μM 30 min prior to TGF-β1, 16-24 hours, 4.00* is assigned to compounds that failed to cause 50% or more inhibition at 10 µM, read-out: pIC50 IL-11 suppression (converted). As to the method: Human Parenchymal Fibroblast Cell Assay
Primary human parenchymal fibroblast cells (pFbs) were cultured from parenchyma of lung resection specimens and from non-transplanted lungs of donors without chronic respiratory disease. pFbs were passaged in Dulbecco's Modified Eagle's Media (DMEM) containing 10% (v/v) heat-inactivated fetal calf serum (FCS), 15 mM HEPES, 0.2% (v/v) sodium bicarbonate, 2 mM L-glutamine, 1% (v/v) non-essential amino acids, 1% (v/v) sodium pyruvate, 2.5 μg/mL amphotericin, 5 IU/mL penicillin and 50 μg/mL streptomycin. In some experiments the human lung fibroblast cell line, MRC5 (sourced from ATTC) was used as indicated. The MRC5 line was maintained under the same conditions as described for the pFb.
Prior to experimentation, pFb were incubated in serum-free DMEM containing 0.25% bovine serum albumin (BSA) and insulin-transferrin-selenium-containing supplement (Monomed A; CSL, Parkville, Melbourne, Australia). The cells were incubated with small molecular CK1δ inhibitors (0.1-10 μM) for 30 min prior to […] TGF-β1 (R&D Systems, Minneapolis, Minn.) and the incubation continued for 16-24 hours prior to harvest of supernatant for detection of immunoreactive IL-11. Stock solutions were made as 10 mM in 100% DMSO and diluted to the required concentration in medium containing 0.1% DMSO (final concentration).
Supernatants were collected for measurement of IL-11 (R&D DuoSet, DY218) by ELISA following the manufacturers' instructions. Generally, capture antibodies were initially diluted to the recommended concentrations using PBS buffer, and then used to coat the wells of 96-well microplates (Greiner, #655061) by adding 50 μL/well and incubated overnight at room temperature. Next day, solutions were discarded and wells were washed 3 times with wash buffer (PBS containing 0.1% (v/v) Tween-20) prior to the addition of 200 μL of blocking solution (PBS containing 1% (v/v) BSA) for 1 hour to block non-specific sites. Plates were then washed 3 times with wash buffer and 50 μL of samples or standards were then added to wells and incubated for 2 hours at room temperature. After the incubation, plates were washed 3 times with wash buffer and 50 μL of detection antibodies were added to wells and incubated for 2 hours at room temperature. Plates were then washed 3 times before adding streptavidin-conjugated horseradish peroxidase (at the recommended concentrations) for 45 min. Plates were then washed 5 times with wash buffer and 100 μL TMB substrate solution (equal parts A and B, BD Biosciences) was added to each well until sufficient signals emerged. The reactions were inactivated by adding 100 μL sulphuric acid (2M H2SO4). The absorbance was measured at 450 nm using the Multiskan Ascent® plate reader. The absorbance of the cytokine standards was fitted to a logistic equation, allowing the concentrations of cytokine in samples to be determined.
PIC50 values (the negative log of the concentration suppressing IL-11 level by 50%) for inhibition of TGF-β-induced IL-11 were interpolated from the linear regression of log concentration small molecule versus IL-11 level (Table 4 and FIG. 2).

Bounds are passed on as bounds.

T1 sequence (Q8N4C8 whole entry): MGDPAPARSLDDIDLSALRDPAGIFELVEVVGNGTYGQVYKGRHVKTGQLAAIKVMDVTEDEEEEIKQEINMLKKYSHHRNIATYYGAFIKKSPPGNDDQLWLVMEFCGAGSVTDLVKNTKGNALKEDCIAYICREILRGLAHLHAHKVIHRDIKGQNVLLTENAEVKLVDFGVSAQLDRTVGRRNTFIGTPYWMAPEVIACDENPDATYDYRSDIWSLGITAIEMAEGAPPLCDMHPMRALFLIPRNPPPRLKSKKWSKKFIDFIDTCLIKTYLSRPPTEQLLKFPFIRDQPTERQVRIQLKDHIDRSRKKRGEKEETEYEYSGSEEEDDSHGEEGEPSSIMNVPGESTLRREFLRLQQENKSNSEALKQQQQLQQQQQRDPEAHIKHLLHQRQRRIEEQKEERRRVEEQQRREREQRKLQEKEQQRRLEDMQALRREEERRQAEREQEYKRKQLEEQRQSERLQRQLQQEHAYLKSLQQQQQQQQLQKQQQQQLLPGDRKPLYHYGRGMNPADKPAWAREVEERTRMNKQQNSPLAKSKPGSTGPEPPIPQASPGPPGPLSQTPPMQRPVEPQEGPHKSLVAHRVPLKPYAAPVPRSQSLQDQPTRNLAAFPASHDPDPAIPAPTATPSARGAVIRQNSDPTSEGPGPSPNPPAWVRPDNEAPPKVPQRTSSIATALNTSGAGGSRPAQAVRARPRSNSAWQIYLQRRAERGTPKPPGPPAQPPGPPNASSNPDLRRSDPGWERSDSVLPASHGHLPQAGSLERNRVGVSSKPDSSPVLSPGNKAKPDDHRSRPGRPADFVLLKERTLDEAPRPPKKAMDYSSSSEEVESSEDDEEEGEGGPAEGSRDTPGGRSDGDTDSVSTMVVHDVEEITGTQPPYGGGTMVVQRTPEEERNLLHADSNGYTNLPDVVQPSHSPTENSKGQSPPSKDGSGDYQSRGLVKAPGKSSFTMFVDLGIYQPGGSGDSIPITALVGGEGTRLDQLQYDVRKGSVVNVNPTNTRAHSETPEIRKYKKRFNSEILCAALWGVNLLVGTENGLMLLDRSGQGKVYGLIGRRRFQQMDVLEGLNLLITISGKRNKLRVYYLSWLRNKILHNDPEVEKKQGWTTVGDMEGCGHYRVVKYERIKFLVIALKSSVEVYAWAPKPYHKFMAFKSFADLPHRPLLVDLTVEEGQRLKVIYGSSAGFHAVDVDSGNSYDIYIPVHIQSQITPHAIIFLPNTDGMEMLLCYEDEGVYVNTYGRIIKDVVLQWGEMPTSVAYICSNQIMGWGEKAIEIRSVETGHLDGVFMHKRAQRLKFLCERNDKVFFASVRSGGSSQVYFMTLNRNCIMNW
T2 sequence (P48730 whole entry): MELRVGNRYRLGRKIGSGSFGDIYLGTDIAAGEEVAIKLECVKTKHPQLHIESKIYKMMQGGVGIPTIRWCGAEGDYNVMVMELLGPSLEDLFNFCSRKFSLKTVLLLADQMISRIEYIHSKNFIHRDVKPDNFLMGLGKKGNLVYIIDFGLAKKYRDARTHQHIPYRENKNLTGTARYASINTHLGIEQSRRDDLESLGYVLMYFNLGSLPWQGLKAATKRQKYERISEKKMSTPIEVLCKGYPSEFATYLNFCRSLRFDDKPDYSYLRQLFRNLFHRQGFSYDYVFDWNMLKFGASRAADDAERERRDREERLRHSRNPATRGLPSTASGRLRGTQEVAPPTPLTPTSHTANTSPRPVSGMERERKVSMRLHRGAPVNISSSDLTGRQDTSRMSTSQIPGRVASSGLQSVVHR
T3 sequence (Q15303 26-1308): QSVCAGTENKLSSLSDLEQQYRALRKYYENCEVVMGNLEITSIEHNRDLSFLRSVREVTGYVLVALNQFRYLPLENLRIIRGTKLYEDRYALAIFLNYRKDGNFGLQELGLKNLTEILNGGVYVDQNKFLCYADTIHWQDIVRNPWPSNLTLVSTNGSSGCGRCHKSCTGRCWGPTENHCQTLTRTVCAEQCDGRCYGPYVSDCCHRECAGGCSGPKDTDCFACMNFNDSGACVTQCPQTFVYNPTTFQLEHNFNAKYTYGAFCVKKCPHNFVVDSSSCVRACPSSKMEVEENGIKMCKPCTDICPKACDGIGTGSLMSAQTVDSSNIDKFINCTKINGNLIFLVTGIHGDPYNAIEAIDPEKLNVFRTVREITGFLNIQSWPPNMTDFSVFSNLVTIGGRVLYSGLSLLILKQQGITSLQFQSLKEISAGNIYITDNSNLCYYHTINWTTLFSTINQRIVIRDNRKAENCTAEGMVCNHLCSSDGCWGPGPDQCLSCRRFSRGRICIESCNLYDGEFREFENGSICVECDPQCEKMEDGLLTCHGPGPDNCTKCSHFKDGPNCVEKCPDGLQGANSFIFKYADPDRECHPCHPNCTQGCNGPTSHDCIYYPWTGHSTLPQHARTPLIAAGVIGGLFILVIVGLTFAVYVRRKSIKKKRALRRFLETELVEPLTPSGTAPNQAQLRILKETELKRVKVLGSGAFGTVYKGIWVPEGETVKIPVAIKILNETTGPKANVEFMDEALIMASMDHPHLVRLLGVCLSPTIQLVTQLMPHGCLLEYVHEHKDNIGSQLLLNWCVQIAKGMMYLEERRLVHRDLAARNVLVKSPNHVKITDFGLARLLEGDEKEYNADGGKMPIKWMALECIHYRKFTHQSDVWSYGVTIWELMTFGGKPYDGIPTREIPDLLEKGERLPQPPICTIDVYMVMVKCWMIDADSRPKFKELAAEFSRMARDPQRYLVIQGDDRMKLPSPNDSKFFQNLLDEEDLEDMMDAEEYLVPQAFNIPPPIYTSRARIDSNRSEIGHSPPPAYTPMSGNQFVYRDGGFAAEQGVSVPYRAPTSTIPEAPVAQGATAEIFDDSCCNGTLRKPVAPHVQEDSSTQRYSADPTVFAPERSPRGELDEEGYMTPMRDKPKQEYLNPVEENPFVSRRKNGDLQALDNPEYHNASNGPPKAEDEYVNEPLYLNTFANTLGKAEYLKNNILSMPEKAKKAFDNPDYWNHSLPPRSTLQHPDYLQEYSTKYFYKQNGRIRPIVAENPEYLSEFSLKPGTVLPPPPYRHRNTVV

Regarding `Fc1ccc(-c2ncn(C3CCCCC3)c2-c2ccnc(NC3CCCC3)n2)cc1` [ZH2-46, 4-(1-Cyclohexyl-4-(4-fluorophenyl)-1H-imidazol-5-yl)-N-cyclopentylpyrimidin-2-amine], the IC50 at MINK/MINK1 worked out at 6.69e-08 M; in experiment [1], 4.99e-09 M; on ERBB4/HER4, 9.01e-06 M.
Regarding `Fc1ccc(-c2ncn(C3CCCCC3)c2-c2ccnc(NC3CCOCC3)n2)cc1` [ZH2-54, 4-(1-Cyclohexyl-4-(4-fluorophenyl)-1H-imidazol-5-yl)-N-(tetrahydro-2H-pyran-4-yl)pyrimidin-2-amine], the IC50 in experiment [2] was 4370 nM; at MINK/MINK1, 1.7e-07 M; in experiment [1], 1.73e-09 M.
`Fc1ccc(-c2ncn(C3CCCCC3)c2-c2ccnc(NC3CCCCC3)n2)cc1` [ZH2-58, N-Cyclohexyl-4-(1-cyclohexyl-4-(4-fluorophenyl)-1H-imidazol-5-yl)pyrimidin-2-amine]: the IC50 is 29500 nM in experiment [2], 2.36e-07 M at MINK/MINK1, 1.95e-08 M in experiment [1] and more than 1e-05 M on ERBB4/HER4.
In the same order, the values of `CCNc1nccc(-c2c(-c3ccc(F)cc3)ncn2C2CCCCC2)n1` [ZH2-78, 4-(1-Cyclohexyl-4-(4-fluorophenyl)-1H-imidazol-5-yl)-N-ethylpyrimidin-2-amine] are 295 nM, 2.26e-08 M, 4.7e-09 M and 7.5e-07 M.
For the molecule `Fc1ccc(-c2ncn(C3CCCCC3)c2-c2ccnc(NCc3cccc(F)c3)n2)cc1` [ZH2-114, 4-(1-Cyclohexyl-4-(4-fluorophenyl)-1H-imidazol-5-yl)-N-(3-fluorobenzyl)pyrimidin-2-amine], the IC50 is 3.33e-08 M at MINK/MINK1 and 3.67e-09 M in experiment [1].
In the case of `Fc1ccc(-c2ncn(C3CCCCC3)c2-c2ccnc(NCc3ccccc3F)n2)cc1` [ZH2-118, 4-(1-Cyclohexyl-4-(4-fluorophenyl)-1H-imidazol-5-yl)-N-(2-fluorobenzyl)pyrimidin-2-amine], the IC50 in experiment [2] is 1450 nM; on MINK/MINK1 it was 4.21e-08 M; in experiment [1], 9.6e-09 M; at ERBB4/HER4 it was 3.66e-06 M.
Consider `Fc1ccc(CNc2nccc(-c3c(-c4ccc(F)cc4)ncn3C3CCCCC3)n2)cc1` [ZH2-122, 4-(1-Cyclohexyl-4-(4-fluorophenyl)-1H-imidazol-5-yl)-N-(4-fluorobenzyl)pyrimidin-2-amine], for which the IC50 in experiment [2] is 2450 nM; on MINK/MINK1 it was 1.95e-08 M; in experiment [1], 5.07e-09 M.
Consider `Fc1ccc(-c2ncn(C3CCCCC3)c2-c2ccnc(NC3CCC(F)(F)CC3)n2)cc1` [ZH2-146, 4-(1-Cyclohexyl-4-(4-fluorophenyl)-1H-imidazol-5-yl)-N-(4,4-difluorocyclohexyl)pyrimidin-2-amine], for which the values for the IC50 (in experiment [2]; on MINK/MINK1; in experiment [1]) were 11500 nM, 1.1e-07 M and 4.93e-09 M, respectively.
As to `O[C@H]1C[C@H](Nc2nccc(-c3c(-c4ccc(F)cc4)ncn3C3CCCCC3)n2)C1` [ZH3-50, trans-3-((4-(1-Cyclohexyl-4-(4-fluorophenyl)-1H-imidazol-5-yl)pyrimidin-2-yl)amino)cyclobutan-1-ol], the IC50 was 417 nM in experiment [2], 1.73e-08 M on MINK/MINK1, 1.36e-09 M in experiment [1] and 4.41e-06 M at ERBB4/HER4.
For `Nc1nccc(-c2c(-c3ccc(F)cc3)ncn2C2CCCC2)n1` [ZH3-58, 4-(1-Cyclopentyl-4-(4-fluorophenyl)-1H-imidazol-5-yl)pyrimidin-2-amine] the same measures were 550 nM, 2.17e-07 M, 8.33e-09 M and 1.39e-06 M.
As for `O[C@H]1C[C@@H](Nc2nccc(-c3c(-c4ccc(F)cc4)ncn3C3CCCCC3)n2)C1` [ZH3-62, cis-3-((4-(1-Cyclohexyl-4-(4-fluorophenyl)-1H-imidazol-5-yl)pyrimidin-2-yl)amino)cyclobutan-1-ol], the IC50 in experiment [2] was 1000 nM; at MINK/MINK1 it was 7.53e-09 M; in experiment [1] it was 1.31e-09 M; on ERBB4/HER4, more than 1e-05 M.
Regarding `Fc1ccc(-c2ncn(C3CCCCC3)c2-c2ccnc(NC3CC(F)(F)C3)n2)cc1` [ZH3-70, 4-(1-Cyclohexyl-4-(4-fluorophenyl)-1H-imidazol-5-yl)-N-(3,3-difluorocyclobutyl)pyrimidin-2-amine], the IC50 came to 2.16e-08 M at MINK/MINK1 and 1e-09 M in experiment [1].
In the case of `CC(C)(C)Cn1cnc(-c2ccc(F)cc2)c1-c1ccnc(N)n1` [ZH3-78, 4-(4-(4-Fluorophenyl)-1-neopentyl-1H-imidazol-5-yl)pyrimidin-2-amine], the IC50 in experiment [2] was 8510 nM; at MINK/MINK1, 8.09e-07 M; in experiment [1], 5.93e-08 M; on ERBB4/HER4, 8.35e-06 M.
For `Fc1ccc(-c2ncn(C3CCCCC3)c2-c2ccnc(NC3CC3)n2)cc1` [ZH3-86, 4-(1-Cyclohexyl-4-(4-fluorophenyl)-1H-imidazol-5-yl)-N-cyclopropylpyrimidin-2-amine] the same measures were 339 nM, 1.06e-08 M, 7.59e-09 M and 1.48e-06 M.
For `Fc1ccc(-c2ncn(CC3CCCCC3)c2-c2ccnc(NC3COC3)n2)cc1` [ZH3-114, 4-(1-(Cyclohexylmethyl)-4-(4-fluorophenyl)-1H-imidazol-5-yl)-N-(oxetan-3-yl)pyrimidin-2-amine] the same measures were 10500 nM, 9.44e-08 M, 1.17e-09 M and 3e-06 M.
`OCCNc1nccc(-c2c(-c3ccc(F)cc3)ncn2CC2CCCCC2)n1` [ZH3-118, 2-((4-(1-(Cyclohexylmethyl)-4-(4-fluorophenyl)-1H-imidazol-5-yl)pyrimidin-2-yl)amino)ethan-1-ol]: the IC50 in experiment [2] was 8320 nM; at MINK/MINK1, 1.97e-07 M; in experiment [1], 2.13e-09 M; on ERBB4/HER4 it was 5.13e-07 M.
In the same order, the values of `CCn1cnc(-c2ccc(F)cc2)c1-c1ccnc(NC2CCC2)n1` [ZH3-122, N-Cyclobutyl-4-(1-ethyl-4-(4-fluorophenyl)-1H-imidazol-5-yl)pyrimidin-2-amine] are 178 nM, 1.83e-08 M, 4.16e-09 M and 4.42e-06 M.
For `Nc1nccc(-c2c(-c3ccc(F)cc3)ncn2CC2CCC(F)(F)CC2)n1` [ZH3-130, 4-(1-((4,4-Difluorocyclohexyl)methyl)-4-(4-fluorophenyl)-1H-imidazol-5-yl)pyrimidin-2-amine] the same measures were 832 nM, 8.9e-07 M, 6.13e-09 M and 1.42e-06 M.
With `O=S1(=O)CCC(Nc2nccc(-c3c(-c4ccc(F)cc4)ncn3C3CCCCC3)n2)CC1` [ZH3-134, 4-((4-(1-Cyclohexyl-4-(4-fluorophenyl)-1H-imidazol-5-yl)pyrimidin-2-yl)amino)tetrahydro-2H-thiopyran 1,1-dioxide], the results for the IC50 (on MINK/MINK1; in experiment [1]) were 3.77e-08 M and 1.15e-09 M, respectively.
